In ChEMBL document CHEMBL1909046, “DrugMatrix in vitro pharmacology data”:

Key:
[1] = target: Mitogen-activated protein kinase 1 (Homo sapiens, UniProt P28482); test: DRUGMATRIX: Protein Serine/Threonine Kinase, ERK2 enzyme inhibition (substrate: Myelin Basic Protein); parameters: species or system Escherichia coli; settings: Not Active = under 50% inhibition at 10 µM
[2] = target: Mitogen-activated protein kinase 3 (Homo sapiens, UniProt P27361); test: DRUGMATRIX: Protein Serine/Threonine Kinase, ERK1 enzyme inhibition (substrate: Myelin Basic Protein); parameters: species or system Escherichia coli; settings: Not Active = under 50% inhibition at 10 µM
Mitogen-activated protein kinase 3, sequence (P27361 whole entry): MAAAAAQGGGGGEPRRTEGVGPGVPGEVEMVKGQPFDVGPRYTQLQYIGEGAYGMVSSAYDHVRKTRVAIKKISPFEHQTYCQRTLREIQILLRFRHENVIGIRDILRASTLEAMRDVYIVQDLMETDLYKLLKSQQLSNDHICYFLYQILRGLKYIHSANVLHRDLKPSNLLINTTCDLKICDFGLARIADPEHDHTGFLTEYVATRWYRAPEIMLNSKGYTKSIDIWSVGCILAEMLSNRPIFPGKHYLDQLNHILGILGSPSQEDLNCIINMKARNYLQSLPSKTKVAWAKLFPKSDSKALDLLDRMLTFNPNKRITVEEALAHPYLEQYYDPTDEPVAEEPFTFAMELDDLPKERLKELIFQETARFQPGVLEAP

Insulin receptor = Insulin receptor (Rattus norvegicus, UniProt P15127); type: cell membranes, Wistar, Liver, Membrane; further: in other assays of this panel Not Active means under 50% inhibition at 10 µM
Insulin receptor, sequence (P15127 27-759 limits assumed): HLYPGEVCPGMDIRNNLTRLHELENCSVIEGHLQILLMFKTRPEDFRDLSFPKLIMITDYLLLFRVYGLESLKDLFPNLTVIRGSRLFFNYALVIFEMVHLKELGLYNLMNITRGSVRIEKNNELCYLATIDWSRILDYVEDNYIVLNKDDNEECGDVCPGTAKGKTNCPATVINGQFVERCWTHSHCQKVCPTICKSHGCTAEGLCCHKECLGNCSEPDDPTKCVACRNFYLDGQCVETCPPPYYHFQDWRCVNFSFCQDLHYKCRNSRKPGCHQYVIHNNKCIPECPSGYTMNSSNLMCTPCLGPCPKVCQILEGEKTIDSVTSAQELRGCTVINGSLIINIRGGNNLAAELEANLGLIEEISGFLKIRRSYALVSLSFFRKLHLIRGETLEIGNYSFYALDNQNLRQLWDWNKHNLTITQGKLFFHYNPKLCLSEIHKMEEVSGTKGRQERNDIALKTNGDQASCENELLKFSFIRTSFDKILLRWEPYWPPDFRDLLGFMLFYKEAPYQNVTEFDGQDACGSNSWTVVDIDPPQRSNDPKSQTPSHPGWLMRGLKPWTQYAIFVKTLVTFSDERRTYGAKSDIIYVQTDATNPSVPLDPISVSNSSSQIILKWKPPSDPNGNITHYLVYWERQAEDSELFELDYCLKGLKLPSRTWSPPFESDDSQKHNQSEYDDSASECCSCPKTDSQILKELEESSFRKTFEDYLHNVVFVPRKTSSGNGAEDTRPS
Insulin receptor, sequence (P15127 764-1383 limits assumed): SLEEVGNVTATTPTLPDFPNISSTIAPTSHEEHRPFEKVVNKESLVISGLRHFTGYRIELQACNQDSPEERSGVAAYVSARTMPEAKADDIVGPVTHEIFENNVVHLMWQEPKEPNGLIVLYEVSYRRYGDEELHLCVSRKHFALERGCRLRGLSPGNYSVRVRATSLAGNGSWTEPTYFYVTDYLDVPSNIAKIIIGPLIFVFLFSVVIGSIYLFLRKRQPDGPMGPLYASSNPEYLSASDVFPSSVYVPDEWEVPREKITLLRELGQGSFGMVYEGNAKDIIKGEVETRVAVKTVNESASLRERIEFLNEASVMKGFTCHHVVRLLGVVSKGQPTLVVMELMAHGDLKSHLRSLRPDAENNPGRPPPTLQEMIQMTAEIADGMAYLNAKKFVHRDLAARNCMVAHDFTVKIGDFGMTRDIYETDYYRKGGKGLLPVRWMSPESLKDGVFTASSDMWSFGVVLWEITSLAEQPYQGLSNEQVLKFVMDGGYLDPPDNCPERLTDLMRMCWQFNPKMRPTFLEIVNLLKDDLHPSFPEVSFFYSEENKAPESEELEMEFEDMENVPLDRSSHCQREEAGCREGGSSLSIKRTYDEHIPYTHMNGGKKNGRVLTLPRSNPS

[3] = target: Aldo-keto reductase family 1 member B1 (Rattus norvegicus, UniProt P07943); test: biochemical; type: tissue-based, Lens of camera-type eye;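 further: inhibition of aldose reductase enzyme activity, measured with DL-glyceraldehyde as the substrate; in other assays of this panel Not Active means under 50% inhibition at 10 µM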
Interstitial collagenase = target: T1, Interstitial collagenase (Homo sapiens, UniProt P03956); test: biochemical; type: tissue-based, Rheumatoid synovial fibroblasts;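 further: MMP-1 enzyme inhibition assay using a peptide substrate; in other assays of this panel Not Active means under 50% inhibition at 10 µM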
T1 sequence (P03956 whole entry): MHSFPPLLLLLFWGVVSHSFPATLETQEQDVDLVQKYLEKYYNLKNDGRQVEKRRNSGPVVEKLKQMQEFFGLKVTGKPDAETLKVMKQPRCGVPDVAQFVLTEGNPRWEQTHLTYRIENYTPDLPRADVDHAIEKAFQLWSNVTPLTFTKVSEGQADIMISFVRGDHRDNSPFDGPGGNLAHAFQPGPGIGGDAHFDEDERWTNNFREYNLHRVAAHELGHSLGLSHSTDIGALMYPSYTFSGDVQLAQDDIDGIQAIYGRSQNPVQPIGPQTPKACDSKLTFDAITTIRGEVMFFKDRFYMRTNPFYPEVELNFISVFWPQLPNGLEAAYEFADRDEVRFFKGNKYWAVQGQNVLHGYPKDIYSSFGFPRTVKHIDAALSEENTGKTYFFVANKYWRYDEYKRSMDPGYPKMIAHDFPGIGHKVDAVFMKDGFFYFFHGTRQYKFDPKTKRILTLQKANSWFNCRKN

[4] = target: T2, 5-hydroxytryptamine receptor 1A (Rattus norvegicus, UniProt P19327); type: cell membranes, CHO-K1, Membrane; further: in other assays of this panel Not Active means under 50% inhibition at 10 µM
T2 sequence (P19327 whole entry): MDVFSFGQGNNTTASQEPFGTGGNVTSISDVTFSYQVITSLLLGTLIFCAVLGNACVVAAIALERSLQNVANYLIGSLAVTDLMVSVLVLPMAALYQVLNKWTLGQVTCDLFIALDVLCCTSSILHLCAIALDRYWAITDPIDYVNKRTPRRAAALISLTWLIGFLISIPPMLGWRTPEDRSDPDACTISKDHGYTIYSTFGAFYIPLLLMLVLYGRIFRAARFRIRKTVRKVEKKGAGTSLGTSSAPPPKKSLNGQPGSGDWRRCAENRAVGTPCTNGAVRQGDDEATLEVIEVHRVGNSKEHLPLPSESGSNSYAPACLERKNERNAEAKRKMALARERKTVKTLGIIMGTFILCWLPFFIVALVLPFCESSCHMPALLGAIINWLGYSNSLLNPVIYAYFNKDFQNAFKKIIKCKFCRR

Mitogen-activated protein kinase 1, sequence (P28482 whole entry): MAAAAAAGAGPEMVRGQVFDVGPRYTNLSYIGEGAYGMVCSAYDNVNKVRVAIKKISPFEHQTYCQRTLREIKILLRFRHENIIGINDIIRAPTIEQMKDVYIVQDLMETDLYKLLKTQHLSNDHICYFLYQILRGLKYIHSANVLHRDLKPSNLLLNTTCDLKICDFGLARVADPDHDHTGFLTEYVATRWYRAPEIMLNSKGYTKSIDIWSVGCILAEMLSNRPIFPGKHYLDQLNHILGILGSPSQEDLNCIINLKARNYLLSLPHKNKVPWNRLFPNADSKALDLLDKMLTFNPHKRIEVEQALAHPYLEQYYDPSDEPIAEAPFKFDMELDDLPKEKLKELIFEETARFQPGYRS

| SMILES | IC50 [1] | IC50 [2] | IC50 (Insulin receptor) | IC50 [3] | IC50 (Interstitial collagenase) | IC50 ([4]; cho-k1) | IC50 ([2]; read-out: IC50) | IC50 ([4]; read-out: IC50) | Ki ([4]; read-out: Ki) |
| --- | --- | --- | --- | --- | --- | --- | --- | --- | --- |
| CCOc1nc2cccc(C(=O)O)c2n1Cc1ccc(-c2ccccc2-c2nnn[nH]2)cc1 | Not Active | Not Active | Not Active | Not Active | Not Active | Not Active |  |  |  |
| O=C(O)CCCc1cccs1 | Not Active | Not Active | Not Active | Not Active | Not Active | Not Active |  |  |  |
| COc1ccccc1N | Not Active | Not Active | Not Active | Not Active | Not Active | Not Active |  |  |  |
| O=C(c1ccccc1F)N1CCC(Cc2ccccc2)CC1 | Not Active | Not Active | Not Active | Not Active | Not Active | Not Active |  |  |  |
| Cc1c(O)cccc1C(=O)N[C@@H](CSc1ccccc1)[C@H](O)CN1C[C@H]2CCCC[C@H]2C[C@H]1C(=O)NC(C)(C)C | Not Active |  | Not Active | Not Active | Not Active | Not Active | 22.5 µM |  |  |
| CC(O)COC[C@H]1O[C@@H]2O[C@H]3[C@H](O)[C@@H](O)[C@@H](O[C@H]4[C@H](O)[C@@H](O)[C@@H](O[C@H]5[C@H](O)[C@@H](O)[C@@H](O[C@H]6[C@H](O)[C@@H](O)[C@@H](O[C@H]7[C@H](O)[C@@H](O)[C@@H](O[C@H]8[C@H](O)[C@@H](O)[C@@H](O[C@H]1[C@H](O)[C@H]2O)O[C@@H]8COCC(C)O)O[C@@H]7COCC(C)O)O[C@@H]6COCC(C)O)O[C@@H]5COCC(C)O)O[C@@H]4COCC(C)O)O[C@@H]3COCC(C)O (stereo partly drawn) [2-HYDROXYPROPYL-BETA-CYCLODEXTRIN] | Not Active | Not Active | Not Active | Not Active | Not Active | Not Active |  |  |  |
| NC(=O)c1cccc(N)c1 [3-AMINOBENZAMIDE] | Not Active | Not Active | Not Active | Not Active | Not Active | Not Active |  |  |  |
| C[C@H]1O[C@H](O[C@H]2[C@H](O)[C@@H](O)[C@@H](O[C@H]3[C@H](O)[C@@H](O)C(O)O[C@@H]3CO)O[C@@H]2CO)[C@H](O)[C@@H](O)[C@@H]1N[C@H]1C=C(CO)[C@@H](O)[C@H](O)[C@H]1O (some centres not stated) [ACARBOSE] | Not Active | Not Active | Not Active | Not Active | Not Active | Not Active |  |  |  |
| CC[C@H]1[C@@H]2C[C@H]3[C@@H]4N(C)c5ccccc5[C@]45C[C@@H]([C@@H]2[C@H]5O)N3[C@@H]1O [AJMALINE] | Not Active | Not Active | Not Active | Not Active | Not Active | Not Active |  |  |  |
| NC12CC3CC(CC(C3)C1)C2 [AMANTADINE] | Not Active | Not Active | Not Active | Not Active | Not Active | Not Active |  |  |  |
| NCCCNCCSP(=O)(O)O [AMIFOSTINE] | Not Active | Not Active | Not Active | Not Active | Not Active | Not Active |  |  |  |
| CN(C)CCC=C1c2ccccc2CCc2ccccc21 [AMITRIPTYLINE] | Not Active | Not Active | Not Active | Not Active | Not Active |  |  | 2000 nM | 1140 nM |
| CC(=O)Oc1ccccc1C(=O)O [ASPIRIN] | Not Active | Not Active | Not Active | Not Active | Not Active | Not Active |  |  |  |
| CC(C)c1c(C(=O)Nc2ccccc2)c(-c2ccccc2)c(-c2ccc(F)cc2)n1CC[C@@H](O)C[C@@H](O)CC(=O)O [ATORVASTATIN] | Not Active | Not Active | Not Active | Not Active | Not Active | Not Active |  |  |  |
| CC(=O)OC[C@H]1O[C@@H](n2ncc(=O)[nH]c2=O)[C@H](OC(C)=O)[C@@H]1OC(C)=O [AZARIBINE] | Not Active | Not Active | Not Active | Not Active | Not Active | Not Active |  |  |  |
| C[C@H]1[C@H](NC(=O)/C(=N\OC(C)(C)C(=O)O)c2csc(N)n2)C(=O)N1S(=O)(=O)O [AZTREONAM] | Not Active | Not Active | Not Active | Not Active | Not Active | Not Active |  |  |  |
| O=C(O)CCNC(=O)c1ccc(/N=N/c2ccc(O)c(C(=O)O)c2)cc1 [BALSALAZIDE] | Not Active | Not Active | Not Active | Not Active | Not Active | Not Active |  |  |  |

| SMILES | IC50 [1] | IC50 [2] | IC50 (Insulin receptor) | IC50 [3] | IC50 (Interstitial collagenase) | IC50 ([4]; cho-k1) | IC50 ([2]; read-out: IC50) | IC50 ([4]; read-out: IC50) | Ki ([4]; read-out: Ki) |
| --- | --- | --- | --- | --- | --- | --- | --- | --- | --- |
| COc1cc(OC)c(C(=O)CCCN2CCCC2)c(OC)c1 [BUFLOMEDIL] | Not Active | Not Active | Not Active | Not Active | Not Active | Not Active |  |  |  |
| Cn1c(=O)c2c(ncn2C)n(C)c1=O [CAFFEINE] | Not Active | Not Active | Not Active | Not Active | Not Active | Not Active |  |  |  |
| ClC(Cl)(Cl)Cl [CARBON TETRACHLORIDE] | Not Active | Not Active | Not Active | Not Active | Not Active | Not Active |  |  |  |
| CO/N=C(\C(=O)N[C@@H]1C(=O)N2C(C(=O)O)=C(COC(C)=O)CS[C@H]12)c1csc(N)n1 [CEFOTAXIME] |  |  | Not Active | Not Active | Not Active | Not Active |  |  |  |
| CNC1=Nc2ccc(Cl)cc2C(c2ccccc2)=[N+]([O-])C1 [CHLORDIAZEPOXIDE] | Not Active | Not Active | Not Active | Not Active | Not Active | Not Active |  |  |  |
| Cc1cc(O)cc(C)c1Cl [CHLOROXYLENOL] | Not Active | Not Active | Not Active | Not Active | Not Active | Not Active |  |  |  |
| CCCNC(=O)NS(=O)(=O)c1ccc(Cl)cc1 [CHLORPROPAMIDE] | Not Active | Not Active | Not Active | Not Active | Not Active | Not Active |  |  |  |
| NS(=O)(=O)c1cc(C2(O)NC(=O)c3ccccc32)ccc1Cl (configuration not stated) [CHLORTHALIDONE] | Not Active | Not Active | Not Active | Not Active | Not Active | Not Active |  |  |  |
| O=C(O)CC(O)(CC(=O)O)C(=O)O [CITRIC ACID] | Not Active | Not Active | Not Active | Not Active | Not Active | Not Active |  |  |  |
| CC(C)NCC(O)c1ccccc1Cl (configuration not stated) [CLORPRENALINE] | Not Active | Not Active | Not Active | Not Active | Not Active | Not Active |  |  |  |
| CN1CCN(C(c2ccccc2)c2ccccc2)CC1 [CYCLIZINE] | Not Active | Not Active | Not Active | Not Active | Not Active | Not Active |  |  |  |
| CN1C[C@@H]2C[C@H]1CN2c1cc2c(cc1F)c(=O)c(C(=O)O)cn2C1CC1 [DANOFLOXACIN] | Not Active | Not Active | Not Active | Not Active | Not Active | Not Active |  |  |  |
| COc1cccc2c1C(=O)c1c(O)c3c(c(O)c1C2=O)C[C@@](O)(C(C)=O)C[C@@H]3O[C@H]1C[C@H](N)[C@H](O)[C@H](C)O1 [DAUNORUBICIN] | Not Active | Not Active | Not Active | Not Active | Not Active | Not Active |  |  |  |
| O=C(O)c1cc(-c2ccc(F)cc2F)ccc1O [DIFLUNISAL] | Not Active | Not Active | Not Active | Not Active | Not Active | Not Active |  |  |  |
| C[S+](C)[O-] [DIMETHYL SULFOXIDE] | Not Active | Not Active | Not Active | Not Active | Not Active | Not Active |  |  |  |
| CC1=NN(c2ccccc2)C(=O)C1 [EDARAVONE] | Not Active | Not Active | Not Active | Not Active | Not Active | Not Active |  |  |  |
